Measurements: patent US20260327628A1, “AN RNA APTAMER THAT BINDS TO ASP7967 OR AN ANALOGUE THEREOF” (priority 2022, published 2026)
Where “and” joins values, the source holds several entries; their conditions need not be identical. Equal entries are not always repeated. Entries after “also recorded” stand apart in the source; their conditions may differ. Where two headings read alike, the source gives them in different places.

Assays:
[1] = target: AC17-4 RNA aptamer; test: Affinity measurement by ITC, AC17-4; format: binding; conditions: 37 °C
Description: ITC experiments were carried out as described previously^26 with some modifications. Template DNA for in vitro transcription was prepared by primer extension using Q5 High-Fidelity DNA Polymerase. AC17-4 RNA aptamer (5′-[…]-3′ (SEQ ID NO: 50)) was prepared using HiScribe T7 High Yield RNA Synthesis Kit (NEB) according to the manufacturer's instructions. The transcription product (100 μl) was treated with 2 U TURBO DNase at 37° C. for 30 min. The RNA was precipitated with ammonium acetate and ethanol and dissolved in water. The solution was further extracted with phenol-chloroform and ethanol precipitated. The RNA was purified by denaturing polyacrylamide gel electrophoresis (PAGE) and the main band was extracted from the gel with TE buffer (10 mM Tris-HCl, pH 7.0, 0.1 mM EDTA). […] RNA concentration was determined by absorbance at 260 nm according to OligoCalc. […]
Titration was performed at 37° C. using MicroCal PEAQ-ITC (Malvern). […] Raw data were analysed by MicroCal PEAQ-ITC analysis software ver. […]
Conventional SELEX requires immobilization of the target molecule on solid phase on which an RNA pool containing randomized sequences are applied. […] The sequences enriched during the SELEX experiment were analyzed by high-throughput (Illumina) sequencing. […]

[2] = in vivo; cited from earlier work
[3] = tested on: hEPO expression in mice; test: In vivo hEPO assay in mice injected with AAV8 vectors; design: species or system BALB/c cAJc1 mice
Description: For AAV production, 293T cells seeded in cellstack5 (Corning) were cotransfected using PEI MAX (Polysciences Inc) with 227.9 μg of the plasmid encoding AAV8 replication and capsid proteins, 455.8 μg of the plasmid encoding helper proteins and 227.9 μg of the pAAV-CMV-hEPO-a8c or -control. At 6 days after transfection, cells and supernatants were harvested, then filtered and concentrated by KrosFlo Research Ili (Spectrum Labs, Inc) for AAV purification by affinity chromatography using AKTA avant 25 (GE healthcare). Then, the virus solutions were ultracentrifuged and dialyzed. Titers of the AAV solutions were determined by quantitative PCR using the AAVpro Titration Kit (for Real-Time PCR) Ver.2 (Takara).
For in vivo animal experiments, 7-week-old male BALB/c cAJc1 mice (CLEA Japan Inc.) were intravenously injected with 200 μl of PBS (as the control group) or purified AAV8 particles (3.0×10^10 virus genome (vg) per mouse) carrying hEPO gene with or without the CPP-a8c-AC17-4 riboswitch. After 13 days from AAV injection, mice were subjected to 24 μl blood collection from tail vein and the blood samples were immediately diluted with 96 μl. At 24 h after the blood collection, the mice were orally administrated 100 mg kg^−1 of ASP7967 in 0.5% methyl cellulose (FUJIFILM Wako Pure Chemical Corp) or 0.5% methyl cellulose as the vehicle solution. At 2, 4, 6, 8 and 24 h after the ASP7967 administration, blood samples were collected as described above. The blood samples were incubated on ice, then centrifuged at 1,200×g for 15 min at 4° C. to collect serum samples. The serum samples were stored at −80° C. and used for measurement of serum hEPO concentration by ELISA.
Next, we studied the riboswitch potency and functionality in vivo. […] Mice were intravenously injected with viral vectors AAV8-CMV-hEPO-control, AAV8-CMV-hEPO-a8c-AC17-4-CPP, or saline (WT). Two weeks after AAV injection, 100 mg kg^−1 dose of ASP7967 was orally administered to induce expression from the riboswitch-regulated vector. Blood was drawn before and at multiple time points after the oral administration (FIG. 9c). Secreted hEPO levels in the serum of the mice injected with the control AAV (AAV8-CMV-hEPO-control) were around 550 mIU ml^−1, and administration of 100 mg kg^−1 dose of the ligand had no effect during the observed time period (FIG. 9d, upper right). On the other hand, upon administration of 100 mg kg^−1 dose of the ligand, hEPO secretion levels were induced by riboswitch-regulated vector (AAV8-CMV-hEPO-a8c-AC17-4-CPP) reaching approximately 115 mIU mL-1 at 6-8 h postdosing, corresponding to a 7.2-fold increase over the mice dosed with the vehicle (FIG. 9d, lower left).

[4] = Pharmacokinetics of ASP7967 in mice after oral administration (LC-MS/MS); format: in vivo, mice (BALB/c cAJc1); conditions: for Tmax: first sampling time point
Description: FIG. 10 Pharmacokinetics of ASP7967 in mice after oral administration. After oral administration at 100 mg kg^−1 to mice (BALB/c cAJc1), plasma and liver concentrations of ASP7967 were measured using liquid chromatography-tandem mass spectrometry (LC-MS/MS). ASP7967 concentrations in both plasma and liver reached maxima within the first sampling time point of 1 h and then decreased over time.

SMILES | Kd [1] | antipsychotic activities [2] | hEPO secretion level (serum) ([3]; 100 mg kg^−1 oral, 6-8 h postdosing, AAV8-CMV-hEPO-a8c-AC17-4-CPP) | increase of serum hEPO over vehicle ([3]; 100 mg kg^−1 oral, AAV8-CMV-hEPO-a8c-AC17-4-CPP) | effect of ligand on serum hEPO in mice injected with control AAV ([3]; 100 mg kg^−1 oral, AAV8-CMV-hEPO-control) | serum hEPO / transgene expression as ligand concentration declines ([3]; 100 mg kg^−1 oral, after 6-8 h) | hEPO after readministration of the ligand ([3]; readministration, data not shown) | Tmax ([4]; mouse, liver, 100 mg kg^−1 oral, read-out: time of maximum liver concentration) | Kp ([4]; mouse, liver, 100 mg kg^−1 oral, read-out: concentration ratio of liver to plasma) | Tmax ([4]; mouse, plasma, 100 mg kg^−1 oral, read-out: time of maximum plasma concentration) | concentration in the liver / distribution (in words) ([4]; oral administration)
Fc1ccc(Nc2nc(NCc3ncccn3)nc(Nc3ccccc3)n2)cc1 [ASP2905, reference compound] | 48 nM | has antipsychotic activities |  |  |  |  |  |  |  |  | 
Fc1ccc(Nc2nc(NCc3ncccn3)nc(Nc3ccc(F)cc3)n2)cc1 [ASP7967] |  |  | approximately 115 mIU mL-1 | 7.2 fold and ~ 7.2 fold | no effect | subsequently decreased; also recorded: diminished as the ligand concentration in the target tissue declined | reactivation of hEPO | ≤ 1 h | 2.7 to 30.6 | ≤ 1 h | high concentration; also recorded: distributed to the liver
